These are literature values, as cited in patent publication US20240122962A1, “PHARMACEUTICAL COMPOSITION FOR USE IN THE PREVENTION OR TREATMENT OF A CONDITION ASSOCIATED WITH A REDUCTION IN THE NUMBER OF LACTOBACILLI IN THE VAGINA” (priority 2020, published 2024).

For the data set, the system named is bacterial vaginosis (BV). As to conditions: 7-day oral treatment, after 1 month.

In the case of `Cc1ncc([N+](=O)[O-])n1CCO` [Metronidazole, metronidazole], the cure rate was 80-90%.
